# According to patent US20230147962A1, “FIBROBLAST ACTIVATION PROTEIN LIGANDS FOR TARGETED DELIVERY APPLICATIONS” (PHILOCHEM AG, priority 2020, published 2023):
# *1 amine or outer side, *2 acyl side, *3 side chain or, on linkers, in order; H or OH if unused. Where a SMILES comes first, the peptide text is derived from it. The star is where a group is joined. Fluorescein(5-Mal) = O=C1OC2(c3ccc(O)cc3Oc3cc(O)ccc32)c2ccc(N3C(=O)CC(*)C3=O)cc21; X1 = N#C[C@@H]1CC(F)(F)CN1C(=O)CNC(=O)c1ccnc2c(N*)cccc12; Suc = O=C(CCC(=O)[*:2])[*:1]
# Legend:
# SK-RC-52 Wild type = assay: Confocal microscopy on SK-RC-52 wild type; type: cell-based; conditions: negative control cells
# Procedure: SK-RC-52.hFAP and SK-RC-52 cells were seeded into 4-well cover slip chamber plates at a density of 10^4 cells per well in RPMI medium (1 mL) supplemented with 10% FCS, AA and HEPES (10 mM) and allowed to grow for 24 hours under standard culture conditions. Hoechst 33342 nuclear dye was used to stain nuclear structures.
# The culture medium was replaced with fresh medium containing conjugate 15 (100 nM). Randomly selected colonies imaged on a SP8 confocal microscope equipped with an AOBS device (Leica Microsystems).
# [1] = tested on: SK-RC-52.hFAP renal cell carcinoma xenografts; assay: Ex vivo targeting experiment, SK-RC-52.hFAP xenografts; type: in vivo, BALB/C nu/nu mice; conditions: 40 nmol intravenous, ex vivo organ images 1 h
# Procedure: SK-RC-52.hFAP cells were grown to 80% confluence and detached with Trypsin-EDTA 0.05%. Cells were re-suspended in HBSS medium to a final concentration of 5×10^7 cells/mL.
# Mice bearing subcutaneous SK-RC-52.hFAP tumour was injected intravenously with conjugate 15 (40 nmol in sterile PBS, pH 7.4). Animals were sacrificed by CO2 asphyxiation 1h after the intravenous injection and the organs and the tumour were excised, snap-frozen in OCT medium and stored at −80° C. Cryostat sections ([…]) were cut and nuclei were stained with Fluorescence Mounting Medium (Dako Omnis, Agilent). Images were obtained using an Axioskop2 mot plus microscope (Zeiss) and analyzed by ImageJ 1.53 software.
# hFAP [2] = molecular target: T1, hFAP (Homo sapiens, UniProt Q12884); assay: Affinity measurement to human FAP by fluorescence polarization; type: binding; conditions: binder 10 nM, read-out: KD to hFAP
# T1 construct: made in house; host or cells: CHO cells, transient gene expression, purified from supernatant
# T1 sequence (Q12884 with tags, fused parts or gaps): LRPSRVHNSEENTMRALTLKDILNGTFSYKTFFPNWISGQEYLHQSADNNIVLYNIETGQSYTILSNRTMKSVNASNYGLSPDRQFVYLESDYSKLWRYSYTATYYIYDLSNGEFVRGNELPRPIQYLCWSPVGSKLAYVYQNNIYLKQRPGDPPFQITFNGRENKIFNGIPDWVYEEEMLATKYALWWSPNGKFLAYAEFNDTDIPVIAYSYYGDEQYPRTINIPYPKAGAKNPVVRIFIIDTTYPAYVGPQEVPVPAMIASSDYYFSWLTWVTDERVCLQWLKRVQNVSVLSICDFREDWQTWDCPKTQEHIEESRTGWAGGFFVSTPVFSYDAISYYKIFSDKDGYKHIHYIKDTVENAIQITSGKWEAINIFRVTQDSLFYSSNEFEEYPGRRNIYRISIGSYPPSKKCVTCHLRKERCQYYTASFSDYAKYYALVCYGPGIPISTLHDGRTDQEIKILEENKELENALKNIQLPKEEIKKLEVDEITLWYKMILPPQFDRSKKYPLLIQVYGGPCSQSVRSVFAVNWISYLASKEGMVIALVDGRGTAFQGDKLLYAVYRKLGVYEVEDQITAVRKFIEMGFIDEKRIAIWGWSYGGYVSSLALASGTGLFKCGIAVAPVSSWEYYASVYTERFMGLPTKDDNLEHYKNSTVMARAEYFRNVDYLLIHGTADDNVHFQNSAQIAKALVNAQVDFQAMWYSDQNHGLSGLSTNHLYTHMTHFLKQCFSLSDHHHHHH
# Procedure: Fluorescence polarization measurements were performed in 384-well plates (non-binding, ps, f-bottom, black, high volume, 30 μL final volume). A stock solution of human FAP (4 μM) was serially diluted with buffer (50 mM Tris, 100 mM NaCl, 1 mM EDTA, pH=7.4), while the final concentration of the binders was kept constant at 10 nM. The measurements were carried out after incubating for 30 min at 37° C. in the dark by fluorescent polarization (FIG. 4).
# Fluorescence polarization experiments were performed in 384-well plates (non-binding, ps, f-bottom, black, high volume, 30 μL final volume). Stock solutions of human FAP (4 μM) and murine FAP (5 μM) were serially diluted with buffer (50 mM Tris, 100 mM NaCl, 1 mM EDTA, pH=7.4), while the final concentration of the binders was kept constant at 10 nM. The fluorescence anisotropy was measured on a TECAN microtiter plate reader. Experiments were performed in triplicate and the mean anisotropy values fitted using Prism 7.
# HT-1080.hFAP = assay: FACS analysis on HT-1080 wild type and HT-1080.hFAP; type: cell-based; conditions: 10 nM
# Procedure: SK-RC-52.hFAP, SK-RC-52.wt, HT-1080.wt and HT-1080.hFAP were detached from culture plates using Accutase, counted and suspended to a final concentration of 1.5×10^6 cells/mL in a 1% v/v solution of FCS in PBS pH 7.4. […] Cells were washed once with 200 μL 1% v/v solution of FCS in PBS pH 7.4 (200 μL), spun down, resuspended in a 1% v/v solution of FCS in PBS pH 7.4 (300 μL) and analyzed on a CytoFLEX cytometer (Beckman Coulter). The raw data were processed with the FlowJo 10.4 software.
# hFAP [3] = molecular target: T1, hFAP; assay: Chromatographic co-elution (PD-10) of ligand-protein complexes, hFAP; type: binding; conditions: PD-10 column, hFAP 2 μM
# Procedure: A PD-10 column was pre-equilibrated with assay buffer (50 mM Tris, 100 mM NaCl, 1 mM EDTA, pH=7.4) prior to the loading of the complex. Human FAP (2 μM) and fluorescein-labeled binders (6 μM) were incubated for 30 min at 37° C. in the dark. The mixture was loaded and the column was flushed using the assay buffer. The flow through was collected in 96-well plates and the fluorescence was measured immediately on a TECAN microtiter plate reader, monitoring the fluorescence at an excitation wavelength of 485 nm and an emission wavelength of 535 nm. The protein quantities were estimated by measuring the absorbance at 280 nm using a Nanodrop 2000/2000c spectrophotometer.
# A PD-10 column was pre-equilibrated with assay buffer (50 mM Tris, 100 mM NaCl, 1 mM EDTA, pH=7.4) prior to the loading of the complex. A mixture of different proteins (hFAP=2 μM, mFAP=5 μM) and conjugate 15 (100 nM) were incubated and loaded on the column. The mixture was flushed using the assay buffer. The flow through was collected in 96-well plates and the fluorescence intensity was measured immediately on a TECAN microtiter plate reader, monitoring the fluorescence at an excitation wavelength of 485 nm and an emission wavelength of 535 nm. The concentration of the proteins was estimated by measuring the absorbance at 280 nm using a Nanodrop 2000/2000c spectrophotometer.
smiles,measurement,setting,value
"N#C[C@@H]1CC(F)(F)CN1C(=O)CNC(=O)c1ccnc2c(NC(=O)CCC(=O)N[C@@H](CC(=O)O)C(=O)N[C@@H](CCCCN)C(=O)N[C@@H](CC(=O)O)C(=O)N[C@@H](CSC3CC(=O)N(c4ccc5c(c4)C(=O)OC54c5ccc(O)cc5Oc5cc(O)ccc54)C3=O)C(=O)O)cccc12 (stereo partly drawn) [Conjugate 15, (2R,5S,8S,11S)-8-(4-aminobutyl)-5,11-bis(carboxymethyl)-16-((4-((2-((S)-2-cyano-4,4-difluoropyrrolidin-1-yl)-2-oxoethyl)carbamoyl)quinolin-8-yl)amino)-2-(((1-(3′,6′-dihydroxy-3-oxo-3H-spiro[isobenzofuran-1,9′-xanthen]-5-yl)-2,5-dioxopyrrolidin-3-yl)thio)methyl)-4,7,10,13,16-pentaoxo-3,6,9,12-tetraazahexadecanoic acid] ({X1-Suc}-DKDC(Fluorescein(5-Mal))-OH)",accumulation on SK-RC-52 Wild type cells,SK-RC-52 Wild type,no accumulation on the cell membrane
same,targeting performance in SK-RC-52.hFAP xenografts,[1],"rapidly and homogeneously localizes at the tumour site in vivo 1 hour after the intravenous injection, with a high tumour-to-organs selectivity"
same,Kd,hFAP [2],680 pM
same,"cellular binding, HT-1080 Wild type vs HT-1080.hFAP",HT-1080.hFAP,FAP-specific cellular binding
same,complex formation with hFAP in PD-10 co-elution,hFAP [3],stable complex is formed
